According to US7276339B2 (H. Lundbeck A/S, priority 1998, dated 2007):
“Also recorded” adds a separate entry of the source. Non-standard residues stand in square brackets, D forms with d. Residues, ends and D or L forms follow the SMILES beside them. No end group written: not given here. NMeF = CN[C@@H](Cc1ccccc1)C(=O)O

Columns and labels:
NPFF receptors = details: cited from earlier work; for inhibition of [125I](1DMe)Y8Fa binding: 10 μM
[1] = target: rat spinal cord membrane receptor; experiment: [125I]D-Tyr-NPFF radioligand binding, rat spinal cord membranes; details: competition of [125I]D-Tyr-NPFF binding; * = differs from NPFF1
Source text: The binding profile of rat NPFF1 was compared to that of rat spinal cord membranes. […] (See * Table 2).

rat NPFF2 receptor [2] = target: T1, rat NPFF2 receptor (Rattus norvegicus, UniProt Q9EQD2); experiment: Functional activity at cloned rat NPFF2 in COS-7 cells; format: cell-based
T1 construct: The full-length rat NPFF2 clone was amplified from rat spinal cord cDNA; expressed in transfected cells; host or cells: COS-7
T1 sequence (Q9EQD2 whole entry): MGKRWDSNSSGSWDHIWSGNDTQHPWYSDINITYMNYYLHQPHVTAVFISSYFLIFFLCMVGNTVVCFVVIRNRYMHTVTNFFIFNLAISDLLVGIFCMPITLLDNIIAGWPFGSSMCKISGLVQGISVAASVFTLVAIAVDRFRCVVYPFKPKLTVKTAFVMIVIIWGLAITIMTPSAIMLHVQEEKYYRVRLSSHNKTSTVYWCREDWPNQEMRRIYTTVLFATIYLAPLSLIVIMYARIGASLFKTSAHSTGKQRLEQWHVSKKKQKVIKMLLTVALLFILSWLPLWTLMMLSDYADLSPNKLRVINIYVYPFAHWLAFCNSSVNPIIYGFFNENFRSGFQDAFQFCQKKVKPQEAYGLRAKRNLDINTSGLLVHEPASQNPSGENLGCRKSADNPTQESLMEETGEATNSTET

human NPFF2 receptor = target: T2, human NPFF2 receptor (Homo sapiens, UniProt Q9Y5X5); experiment: [125I]D-Tyr-NPFF radioligand binding, HEK-293 cells expressing human NPFF2; details: for Ki: read-out: pKi ± SEM, human NPFF2 (converted)
T2 construct: BO89, was determined to be a full length clone with no point mutations; expressed in transfected cells; host or cells: HEK-293 (transient)
T2 sequence (Q9Y5X5 103-522): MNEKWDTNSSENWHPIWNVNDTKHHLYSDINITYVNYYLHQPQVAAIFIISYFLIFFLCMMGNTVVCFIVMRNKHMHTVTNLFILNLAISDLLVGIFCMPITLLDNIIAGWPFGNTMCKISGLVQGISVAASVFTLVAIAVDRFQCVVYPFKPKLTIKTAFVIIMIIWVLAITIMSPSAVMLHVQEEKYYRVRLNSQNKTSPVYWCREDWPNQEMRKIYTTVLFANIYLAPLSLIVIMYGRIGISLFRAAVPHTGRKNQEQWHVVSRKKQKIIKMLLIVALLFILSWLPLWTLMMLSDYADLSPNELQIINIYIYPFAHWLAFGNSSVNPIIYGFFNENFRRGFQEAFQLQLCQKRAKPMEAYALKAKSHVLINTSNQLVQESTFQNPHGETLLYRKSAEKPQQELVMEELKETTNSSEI
Description: (§1) Transfected cells from culture flasks are scraped into 5 ml of 20 mM Tris-HCl, 5 mM EDTA, pH 7.5, and lysed by sonication. The cell lysates are centrifuged at 1000 rpm for 5 min. at 4° C., and the supernatant is centrifuged at 30,000×g for 20 min. at 4° C. The pellet is suspended in binding buffer (50 mM Tris-HCl, 60 mM NaCl, 1 mM MgCl, 33 μM EDTA, 33 μM EGTA at pH 7.4 supplemented with 0.2% BSA, 2 μg/ml aprotinin, and 20 μM bestatin). Optimal membrane suspension dilutions, defined as the protein concentration required to bind less than 10% of the added radioligand, are added to 96-well polpropylene microtiter plates containing ^3H-labeled compound, unlabeled compounds, and binding buffer to a final volume of 250 μl. In equilibrium saturation binding assays membrane preparations are incubated in the presence of increasing concentrations of [^3H]-labeled compound. The binding affinities of the different compounds are determined in equilibrium competition binding assays, using [^125I]-labeled compound in the presence of ten to twelve different concentrations of the displacing ligands. Competition assay: 50 pM radioligand, 10-12 points. Binding reaction mixtures are incubated for 2 hr at 25° C., and the reaction stopped by filtration through a double layer of GF filters treated with 0.1% polyethyleneimine, using a cell harvester. Wash buffer: 50 mM Tris-HCl, 0.1% BSA. Radioactivity may be measured by scintillation counting and data are analyzed by a computerized non-linear regression program. Non-specific binding is defined as the amount of radioactivity remaining after incubation of membrane protein in the presence of 1 μM final concentration […]. Protein concentration may be measured by the Bradford method using Bio-Rad Reagent, with bovine serum albumin as a standard.
(§2) Additional pharmacological evaluation was done using 293 human embryonic kidney cells (HEK-293 cells) transiently expressing the genes encoding the human NPFF1, NPFF2, and rat NPFF1 receptors, as well as Cos-7 cells expressing the rat NPFF2 receptors.

normotensive rats = experiment: Blood pressure in anesthetized normotensive rats, intravenous administration; format: in vivo, rat; details: 0.3 mg/kg, 1 minute before the agonist
Source text: Rats were anesthetized with urethane and PE50 cannulae were placed in the femoral artery and vein for blood pressure monitoring and drug administration, respectively.

human NPFF1 receptor = target: T3, human NPFF1 receptor (Homo sapiens, UniProt Q9GZQ6); experiment: [125I]D-Tyr-NPFF radioligand binding, HEK-293 cells expressing human NPFF1; details: for Ki: Table 3, read-out: pKi ± SEM, human NPFF1 (converted)
T3 construct: To obtain a full-length hNPFF1 construct in the correct orientation; expressed in transfected cells; host or cells: HEK-293 (transient)
T3 sequence (Q9GZQ6 whole entry): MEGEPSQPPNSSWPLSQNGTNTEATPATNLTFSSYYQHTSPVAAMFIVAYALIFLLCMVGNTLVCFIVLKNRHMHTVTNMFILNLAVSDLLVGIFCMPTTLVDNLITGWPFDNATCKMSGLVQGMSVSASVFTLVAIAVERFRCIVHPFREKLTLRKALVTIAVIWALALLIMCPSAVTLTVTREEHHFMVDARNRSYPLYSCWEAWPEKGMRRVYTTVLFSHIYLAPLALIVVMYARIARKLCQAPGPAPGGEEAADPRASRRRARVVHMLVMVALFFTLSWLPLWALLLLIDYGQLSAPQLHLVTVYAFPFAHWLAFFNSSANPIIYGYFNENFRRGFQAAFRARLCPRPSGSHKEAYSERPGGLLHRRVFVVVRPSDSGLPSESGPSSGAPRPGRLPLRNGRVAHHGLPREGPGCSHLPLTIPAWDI
Description: as §1, §2

anesthetized rats = experiment: Distension-induced rhythmic contraction (DIRC) model of the micturition reflex in anesthetized rats; format: in vivo, rat; details: i.v.
Description: The effects of compounds on the micturition reflex were assessed in the “distension-induced rhythmic contraction” (DIRC) model in rats. This model of the micturition reflex has been described in previous publications (e.g. 72, 73).
Female Sprague Dawley rats weighing approximately 300 g were anesthetized with subcutaneous urethane (1.2 g/kg). The trachea was cannulated with PE240 tubing to provide a clear airway throughout the experiment. A midline abdominal incision was made and the left and right ureters were isolated. The ureters were ligated distally (to prevent escape of fluids from the bladder) and cannulated proximally with PE10 tubing. The incision was closed using 4-0 silk sutures, leaving the PE10 lines routed to the exterior for the elimination of urine. The bladder was canulated via the transurethral route using PE50 tubing inserted 2.5 cm beyond the urethral opening. This cannula was secured to the tail using tape and connected to a pressure transducer. To prevent leakage from the bladder, the cannula was tied tightly to the exterior urethral opening using 4-0 silk.
To initiate the micturition reflex, the bladder was first emptied by applying pressure to the lower abdomen, and then filled with normal saline in 100 μl increments (maximum=2 ml) until spontaneous bladder contractions occurred (typically 20-40 mmHg at a rate of one contraction every 2 to 3 minutes. Once a regular rhythm was established, vehicle (saline) or test compounds were administered intravenously to examine their effects on bladder activity. The effect of a compound which inhibited the micturition reflex was expressed as its “disappearance time”, defined as the time between successive bladder contractions in the presence of the test compound minus the time between contractions before compound administration.

rat NPFF1 receptor [3] = target: T4, rat NPFF1 receptor (Rattus norvegicus, UniProt Q9EP86); experiment: Functional activity at cloned rat NPFF1 in COS-7 cells; format: cell-based; set-up: expressed in transfected cells; host or cells: COS-7 (transient); details: COS-7 cells
T4 sequence (Q9EP86 whole entry): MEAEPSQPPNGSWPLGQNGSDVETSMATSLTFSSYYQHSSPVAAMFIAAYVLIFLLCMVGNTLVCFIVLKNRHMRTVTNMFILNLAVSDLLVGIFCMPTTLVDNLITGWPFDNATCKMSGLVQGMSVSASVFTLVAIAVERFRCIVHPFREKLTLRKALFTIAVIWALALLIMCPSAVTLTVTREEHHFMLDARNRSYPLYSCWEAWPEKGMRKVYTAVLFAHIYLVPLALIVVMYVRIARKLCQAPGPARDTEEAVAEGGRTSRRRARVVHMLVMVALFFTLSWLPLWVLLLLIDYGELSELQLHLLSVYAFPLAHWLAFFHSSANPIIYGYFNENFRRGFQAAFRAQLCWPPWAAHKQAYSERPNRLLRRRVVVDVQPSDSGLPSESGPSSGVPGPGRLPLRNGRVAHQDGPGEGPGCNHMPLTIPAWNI

rat NPFF2 receptor [4] = target: T1, rat NPFF2 receptor; experiment: [125I]D-Tyr-NPFF radioligand binding, cloned rat NPFF2; details: for Ki: read-out: pKi ± SEM, rat NPFF2 (converted)
Description: as §1, §2

rat NPFF1 receptor [5] = target: T4, rat NPFF1 receptor; experiment: [125I]D-Tyr-NPFF radioligand binding, HEK-293 cells expressing rat NPFF1; set-up: expressed in transfected cells; details: for Ki: Table 3, read-out: pKi ± SEM, rat NPFF1 (converted)
Description: as §1, §2

rat NPFF1 receptor [6] = target: T4, rat NPFF1 receptor; experiment: [125I]D-Tyr-NPFF radioligand binding, membranes of COS-7 cells transiently expressing cloned rat NPFF1; set-up: expressed in transfected cells; host or cells: COS-7 (transient)
Description: as §1, with “The pellet is suspended in binding buffer (50 mM Tris-HCl, 60 mM NaCl, 1 mM MgCl, 33 μM EDTA, 33 μM EGTA at pH 7.4 supplemented with 0.2% BSA, 2 μg/ml aprotinin, and 20 μM bestatin).” left out, “[…],” for “are added to 96-well polpropylene microtiter plates containing ^3H-labeled compound,”, “The binding affinities of the different compounds are determined in equilibrium competition binding assays, using [^125I]-labeled compound in the presence of ten to twelve different concentrations of the displacing ligands.” left out
Cos-7 cells transiently expressing the gene encoding the novel rat NPFF1 receptor were used for pharmacological evaluation.

NPFF2 (NPFF-like) = target: T5, NPFF2 (NPFF-like) (Homo sapiens, UniProt Q9Y5X5); experiment: Voltage-clamp electrophysiology, Xenopus oocytes injected with NPFF-like (NPFF2) and chimeric Gαq/z RNA; format: cell-based; details: 1 μM, holding potential −80 mV
T5 construct: linearized plasmids or PCR products containing the complete coding region of the genes; expressed in transfected cells; host or cells: Xenopus laevis oocytes injected with mRNA from ligation PCR products or linearized BO89
T5 sequence (Q9Y5X5 103-522): as the sequence (Q9Y5X5 103-522) above
Description: For expression of NPFF2, mRNA transcripts were generated as described for NPFF1, using PCR products from ligation reactions or linearized DNA from BO89 as DNA templates. Oocytes were injected with 5-50 ng NPFF2 mRNA and incubated as previously described.
(§3) Oocytes were harvested from Xenopus laevis and injected with mRNA transcripts as previously described (Quick and Lester, 1994; Smith et al., 1997). […] Three to eight hours prior to recording, oocytes were injected with 500 pg Gαq/z mRNA in order to observe coupling to Ca^++ activated Cl^− currents. Dual electrode voltage clamp (Axon Instruments Inc.) was performed using 3 M KCl-filled glass microelectrodes having resistances of 1-2 Mohm. Unless otherwise specified, oocytes were voltage clamped at a holding potential of −80 mV. During recordings, oocytes were bathed in continuously flowing (1-3 ml/min) medium containing 96 mM NaCl, 2 mM KCl, 1.8 mM CaCl2, 1 mM MgCl2, and 5 mM HEPES, pH 7.5 (ND96). Drugs were applied either by local perfusion from a […] glass capillary tube fixed at a distance of 0.5 mm from the oocyte, or by switching from a series of gravity fed perfusion lines.
(§4) Heterologous expression of GPCRs in Xenopus oocytes has been widely used to determine the identity of signaling pathways activated by agonist stimulation (Gundersen et al., 1983; Takahashi et al., 1987). Activation of the phospholipase C (PLC) pathway is assayed by applying test compound in ND96 solution to oocytes previously injected with mRNA for the mammalian receptor and observing inward currents at a holding potential of −80 mV. The appearance of currents that reverse at −25 mV and display other properties of the Ca^++-activated Cl^− (chloride) channel is indicative of mammalian receptor-activation of PLC and release of IP3 and intracellular Ca^++.

NPFF1 (SNORF2) = target: T6, NPFF1 (SNORF2) (Rattus norvegicus, UniProt Q9EP86); experiment: Voltage-clamp electrophysiology, Xenopus oocytes injected with SNORF2 (NPFF1) and chimeric Gαq/z RNA; format: cell-based; details: 1 μM; oocytes with SNORF2 + Gαq/z; holding potential −80 mV
T6 construct: linearized plasmids or PCR products containing the complete coding region of the genes; expressed in transfected cells; host or cells: Xenopus laevis oocytes injected with synthetic RNA (T7 transcripts)
T6 sequence (Q9EP86 whole entry): as the sequence (Q9EP86 whole entry) above
Description: as §3, §4

[7] = Table 3, HEK-293 cells, [125I]D-Tyr-NPFF
[8] = Table 3, title HEK-293 cells (text: Cos-7), [125I]D-Tyr-NPFF

Compound: CC(C)C[C@H](NC(=O)[C@H](N)Cc1ccc(O)cc1)C(=O)N(C)[C@@H](Cc1ccccc1)C(=O)N[C@@H](CCC(N)=O)C(=O)N1CCC[C@H]1C(=O)N[C@@H](CCC(N)=O)C(=O)N[C@@H](CCCNC(=N)N)C(=O)N[C@@H](Cc1ccccc1)C(N)=O [(D-Tyr^1-(NMe)Phe^3)NPFF] (H-[dY]L[NMeF]QPQRF-NH2; N-terminus assumed)
- Ki (NPFF receptors; spinal cord membranes, read-out: Ki, inhibition of [125I](1DMe)Y8Fa binding): 0.16 nM
- pKi for rat spinal cord membrane receptor binding, MEAN [1]: *9.724

Compound: NC(N)=NCCC[C@@H](NC(=O)C(c1ccccc1)c1ccccc1)C(=O)NCc1ccc(O)cc1 [BIBP 3226]
- EC50 (rat NPFF2 receptor [2]): 944 nM
- Maximum Effect (% NPFF), rat NPFF2 (rat NPFF2 receptor [2]): 67 % NPFF
- pKi ± SEM, human NPFF2 (human NPFF2 receptor; [7]): 5.9 ± 0.04
- block of pressor response to fPP (normotensive rats): completely blocked
- block of pressor response to pLeu,Pro-NPY (normotensive rats): completely blocked
- reduction of pressor response to NPFF (normotensive rats): ~50%
- pKi ± SEM, human NPFF1 (human NPFF1 receptor; Table 3): 6.9 ± 0.04
- block of inhibitory effect of fPP on micturition (anesthetized rats; 0.3 mg/kg): not blocked
- block of inhibitory response to NPFF on micturition (anesthetized rats; 0.3 mg/kg): did not block
- Maximum Effect (% NPFF), rat NPFF1 (rat NPFF1 receptor [3]): 0 % NPFF
- EC50 (rat NPFF1 receptor [3]; read-out: EC50, rat NPFF1): > 10000 nM
- pKi ± SEM, rat NPFF2 (rat NPFF2 receptor [4]; [8]): 5.8±0.02
- pKi ± SEM, rat NPFF1 (rat NPFF1 receptor [5]; Table 3): 7.6±0.04

Compound: CSCC[C@@H](NC(=O)[C@@H](N)Cc1ccccc1)C(=O)N[C@@H](CCCNC(=N)N)C(=O)N[C@@H](Cc1ccccc1)C(N)=O [D-Met-FMRF amide]
- Ki (human NPFF2 receptor; [7]): 398 nM
- Ki (human NPFF1 receptor): 251 nM
- Ki (rat NPFF2 receptor [4]; [8]): 631 nM
- Ki (rat NPFF1 receptor [5]): 631 nM

Compound: CN1CC[C@]23c4c5ccc(O)c4O[C@H]2[C@@H](O)C=C[C@H]3[C@H]1C5 [morphine]
- inhibition of [125I](1DMe)Y8Fa binding (NPFF receptors): No inhibition

Compound: CSCC[C@H](NC(=O)[C@H](CC(C)C)NC(=O)CNC(=O)[C@H](Cc1ccccc1)NC(=O)[C@H](Cc1ccccc1)NC(=O)[C@H](CCC(N)=O)NC(=O)[C@H](CCC(N)=O)NC(=O)[C@@H]1CCCN1C(=O)[C@H](CCCCN)NC(=O)[C@@H]1CCCN1C(=O)[C@@H](N)CCCN=C(N)N)C(N)=O [substance P]
- inhibition of [125I](1DMe)Y8Fa binding (NPFF receptors): No inhibition

Compound: APSEPHHPGDQATQDQLAQYYSDLYQYITFVTRPRF-NH2 (C-terminus assumed) [fPP]
- fold greater affinity for human NPFF2 compared to human NPFF1 (human NPFF2 receptor; from competition binding pKi): 77 fold
- effect on distension-induced rhythmic contractions of the bladder (anesthetized rats; fPP 0.1 mg/kg): inhibited
- fold greater affinity for rat NPFF2 compared to rat NPFF1 (rat NPFF2 receptor [4]; from competition binding pKi): 31 fold
- pKi for rat spinal cord membrane receptor binding, MEAN [1]: *9.118
- pKi for cloned rat NPFF1 receptor binding in COS-7 cells, MEAN (rat NPFF1 receptor [6]; competition of [125I]D-Tyr-NPFF binding, COS-7 membranes): 5.5
- displacement of [125I]D-Tyr-NPFF binding on the NPFF1 receptor (rat NPFF1 receptor [6]; up to 1 uM): did not displace

Compound: H-AGEGLSSPFWSLAAPQRF-NH2 [A18Fa]
- Ki (human NPFF2 receptor; [7]): 1.26 nM
- Ki (human NPFF1 receptor): 63.1 nM
- inward current response (NPFF2 (NPFF-like)): activated similar inward currents
- inward current response (NPFF1 (SNORF2)): robust inward currents
- Ki (rat NPFF2 receptor [4]; [8]): 6.31 nM
- pKi for rat spinal cord membrane receptor binding, MEAN [1]: *9.000
- Ki (rat NPFF1 receptor [5]): 31.6 nM

Compound: NPY
- inward current response (NPFF2 (NPFF-like)): failed to activate; also recorded: no response
- inhibition of [125I](1DMe)Y8Fa binding (NPFF receptors): No inhibition

Compound: neurokinin A
- inward current response (NPFF2 (NPFF-like)): failed to activate; also recorded: no response

Compound: orexin A (QPLPDCCRQKTCSCRLYELLHGAGNHAAGILTL; ends and bridges not checked; cysteine pairing not given here; UniProt O43612 34-66, looked up)
- inward current response (NPFF2 (NPFF-like)): failed to activate; also recorded: no response
